# Entries after “also recorded” stand apart in the source; their conditions may differ.
# Tested on: patients with systolic hypertension
# Experiment: 12-week randomized, open-label, multi-center, cross-over clinical study of aliskiren 300 mg on high versus low sodium diet (24-hour ABPM)
# Assay type: in vivo, human
# Details: aliskiren 300 mg once daily; 4 weeks high sodium (≧200 mmol/day) vs 4 weeks low sodium (≦100 mmol/day) diet; non-inferiority margin 4 mmHg
# Protocol: The effect of Aliskiren (300 mg) on reduction in mean 24-hour ambulatory blood pressure systolic hypertensive patients using low and high sodium diets is examined in a 12-week, randomized, open-label, multi-center, cross-over study. Subjects with systolic hypertension have a 2-4 week washout of their current antihypertensive medications. Patients who meet 8-hour ABPM criteria at week 0 (ABPM mean daytime systolic blood pressure ≧135 mmHg and <160 mmHg) are randomized to either a high sodium (≧200 mmol/day) or low sodium (≦100 mmol/day) diet and will be dispensed aliskiren 300 mg.
# After 2 and 4 weeks on the assigned sodium level diet, 24-hour urine (Bentley, Brook 2006) collections for sodium and creatinine are collected and measured to confirm adherence to the diet. After 4 weeks on the assigned sodium level diet, 24-hour ABPM is measured. Patients are then crossed over to the other level sodium diet. Those patients who had high sodium diet for the first four weeks start having low sodium diet for the next 4 weeks and vice versa. After 2 and 4 weeks on the new diet, 24-hour urine collections for sodium and creatinine are again collected and measured to confirm adherence to the diet. After 4 weeks on the newly assigned sodium level diet, 24-hour ABPM are measured. […]
smiles,measurement,value
"COCCCOc1cc(C[C@@H](C[C@H](N)[C@@H](O)C[C@H](C(=O)NCC(C)(C)C(N)=O)C(C)C)C(C)C)ccc1OC [aliskiren, 2(S),4(S),5(S),7(S)—N-(3-amino-2,2-dimethyl-3-oxopropyl)-2,7-di(1-methylethyl)-4-hydroxy-5-amino-8-[4-methoxy-3-(3-methoxy-propoxy)phenyl]-octanamide]",antihypertensive effect (change in mean 24-hour ambulatory blood pressure) on high versus low sodium diet,the same (within the BP boundaries indicated) regardless of whether the subject ingests a high or a low sodium diet; also recorded: reduce blood pressure efficiently irrespective of the sodium intake

# Reference: patent publication US20100120921A1, “RENIN INHIBITORS FOR TREATMENT OF HYPERTENSION IN PATIENTS WITH HIGH SODIUM DIET” (NOVARTIS AG, priority 2007, published 2010)
